The values below come from ChEMBL document CHEMBL2034954, “Synthesis and antimycobacterial activity of novel 1,3-dimethylisocyanurate derivatives” (Eur J Med Chem, 2012).

What is called MIC is the lowest concentration found to suppress growth.

≈ marks a conversion by molar mass, not a printed value. Calls of active or inactive are those of the source. The calls are words filed in the database; no cut-off is given here. A value given as a limit tells only on which side of the number the result lay.

For assay [1], the system named is Mycobacterium tuberculosis. The assay is described as follows: Antitubercular activity against Mycobacterium tuberculosis H37Rv after […] by radiometric growth assay. The format is functional.
Assay [2] has as its system Mycobacterium tuberculosis. The experiment in a line: Bacteriostatic activity against Mycobacterium tuberculosis H37Rv at 0.1 ug/mL assessed as growth index after 4 days by radiometric growth assay (reference value: 210 growth index). It is filed as functional.
For assay [3], the system named is Mycobacterium tuberculosis. The experiment in a line: Bacteriostatic activity against Mycobacterium tuberculosis H37Rv at 0.5 ug/mL assessed as growth index after 3 days by radiometric growth assay (reference value: 210 growth index). It is filed as functional.
Assay [4] concerns Mycobacterium tuberculosis. The experiment in a line: Bacteriostatic activity against Mycobacterium tuberculosis H37Rv at 0.1 ug/mL assessed as growth index after 3 days by radiometric growth assay (reference value: 210 growth index). It is filed as functional.
Assay [5] deals with Mycobacterium tuberculosis. The experiment in a line: Bacteriostatic activity against Mycobacterium tuberculosis H37Rv at 0.5 ug/mL assessed as growth index after 10 days by radiometric growth assay (reference value: 210 growth index). The format is functional.
Assay [6] relates to Mycobacterium tuberculosis. The assay is described as follows: Bacteriostatic activity against Mycobacterium tuberculosis H37Rv at 0.5 ug/mL assessed as growth index after 4 days by radiometric growth assay (reference value: 210 growth index). The format is functional.
Assay [7] has as its system Mycobacterium tuberculosis. The experiment in a line: Bacteriostatic activity against Mycobacterium tuberculosis H37Rv at 0.1 ug/mL assessed as growth index after 7 days by radiometric growth assay (reference value: 210 growth index). It is filed as functional.
The test system of assay [8] is Mycobacterium tuberculosis. The experiment in a line: Bacteriostatic activity against Mycobacterium tuberculosis H37Rv at 0.5 ug/mL assessed as growth index after 7 days by radiometric growth assay (reference value: 210 growth index). The format is functional.
The test system of assay [9] is Mycobacterium tuberculosis. The assay is described as follows: Bacteriostatic activity against Mycobacterium tuberculosis H37Rv at 0.1 ug/mL assessed as growth index after 5 days by radiometric growth assay (reference value: 210 growth index). It is filed as functional.
In assay [10] the test system is Mycobacterium tuberculosis. The assay is described as follows: Bacteriostatic activity against Mycobacterium tuberculosis H37Rv at 0.5 ug/mL assessed as growth index after 5 days by radiometric growth assay (reference value: 210 growth index). It is filed as functional.
In assay [11] the test system is Mycobacterium tuberculosis. The experiment in a line: Antitubercular activity against Mycobacterium tuberculosis H37Rv at 10 ug/mL by radiometric growth assay. The format is functional, organism-based.
Assay [12] deals with Mycobacterium tuberculosis. The assay is described as follows: Bacteriostatic activity against Mycobacterium tuberculosis H37Rv at 1 ug/mL assessed as growth index after 3 days by radiometric growth assay (reference value: 210 growth index). The format is functional.
The subject of assay [13] is Mycobacterium tuberculosis. The experiment in a line: Bacteriostatic activity against Mycobacterium tuberculosis H37Rv at 0.1 ug/mL assessed as growth index after 10 days by radiometric growth assay (reference value: 210 growth index). It is filed as functional.
For assay [14], the system named is Mycobacterium tuberculosis. The experiment in a line: Bacteriostatic activity against Mycobacterium tuberculosis H37Rv at 1 ug/mL assessed as growth index after 7 days by radiometric growth assay (reference value: 210 growth index). It is filed as functional.
For assay [15], the system named is Mycobacterium tuberculosis. The assay is described as follows: Bacteriostatic activity against Mycobacterium tuberculosis H37Rv at 1 ug/mL assessed as growth index after 4 days by radiometric growth assay (reference value: 210 growth index). The format is functional.
Assay [16] relates to Mycobacterium tuberculosis. The assay is described as follows: Bacteriostatic activity against Mycobacterium tuberculosis H37Rv at 1 ug/mL assessed as growth index after 10 days by radiometric growth assay (reference value: 210 growth index). It is filed as functional.
The test system of assay [17] is Mycobacterium tuberculosis. The experiment in a line: Bacteriostatic activity against Mycobacterium tuberculosis H37Rv at 1 ug/mL assessed as growth index after 5 days by radiometric growth assay (reference value: 210 growth index). The format is functional.
The subject of assay [18] is Mycobacterium tuberculosis. The experiment in a line: Bacteriostatic activity against Mycobacterium tuberculosis H37Rv at 25 ug/mL assessed as growth index after 3 days by radiometric growth assay (reference value: 210 growth index). The format is functional.
In assay [19] the test system is Mycobacterium tuberculosis. The assay is described as follows: Antitubercular activity against Mycobacterium tuberculosis H37Rv at 1 ug/mL by radiometric growth assay. The format is functional, organism-based.

On to `C=CCn1c(=O)n(CC=C)c(=O)n(CC(O)CS(=O)(=O)CC(=O)NN)c1=O` (stereo not drawn), for which inhibition of growth in [1] (MIC) required 0.1 µg/mL (≈ 0.248 µM).

Consider `Cn1c(=O)n(C)c(=O)n(C[S+]([O-])CC(N)=O)c1=O` (stereo not drawn), for which the Growth_index was 30 in assay [2]; 32 in [3]; 30 in [4]; 50 in [5]; 50 in assay [6]; above 90 in assay [7]. Further, the Growth_index in assay [8] was determined as 50; in assay [9], 36; in assay [10], 50. In addition, the MIC in assay [1] is 0.1 µg/mL (≈ 0.362 µM).

Regarding `CC1COc2c(N3CCN(C)CC3)c(F)cc3c(=O)c(C(=O)O)cn1c23` (stereo not drawn), the outcome in assay [11] was Active.

Take `Cn1c(=O)n(C)c(=O)n(CS(=O)(=O)CC(=O)NN)c1=O`: the Growth_index in [2] is recorded as 43; in assay [3], 25; in [4], 35; in assay [12], 20; in assay [13], 47; in assay [5], 52. Besides, the Growth_index is given as 41 in assay [6]; 20 in [14]; 20 in [15]; 47 in assay [7]; 52 in assay [8]; 47 in [9]. For the same molecule, the results for the Growth_index in assay [16] and in assay [10] were 20 and 52, respectively. Also, in assay [1], inhibition of growth (MIC) required 0.1 µg/mL (≈ 0.325 µM).

Take `Cn1c(=O)n(C)c(=O)n(CCCCCC[S+]([O-])CC(=O)NN)c1=O` (stereo not drawn): it took 0.5 µg/mL (≈ 1.38 µM) to inhibit growth in assay [1] (MIC). For the same molecule, the Growth_index in assay [12] is listed as 10; in [14], above 90; in assay [17], 15; in assay [15] it was 15.

In turn, `Cn1c(=O)n(C)c(=O)n(CS(=O)(=O)CC(N)=O)c1=O` registered an MIC in assay [1] of 1 µg/mL (≈ 3.42 µM).

In turn, `Cn1c(=O)n(C)c(=O)n(CCCCCCCCCC[S+]([O-])CC(=O)NN)c1=O` (stereo not drawn) returned an MIC in assay [1] of 0.5 µg/mL (≈ 1.2 µM). Moreover, the Growth_index in assay [12] is on record as 0; in [14], 22; in [17], 22; in [15], 20; in [16], 22.

Turning to `Cn1c(=O)n(C)c(=O)n(CCCCC[S+]([O-])CC(N)=O)c1=O` (stereo not drawn), the Growth_index stood at 27 in assay [2]; 26 in [3]; 23 in assay [4]; 12 in assay [12]; 60 in assay [5]; 37 in [6]. Also, the Growth_index in assay [14] was above 90; in assay [17], 30; in [15] it was 30; in assay [7], above 90; in assay [8], 50; in [9] it was 30. Further, in [10], the Growth_index was 38. Inhibition of growth in [1] (MIC) required 0.1 µg/mL (≈ 0.301 µM).

In turn, `Cn1c(=O)n(C)c(=O)n(CCC[S+]([O-])CC(=O)NN)c1=O` (stereo not drawn) registered an MIC in [1] of 1 µg/mL (≈ 3.13 µM). The Growth_index in assay [12] was 5; in assay [14], 5; in assay [17], 5; in [15], 5; in assay [16] it was 55.

Turning to `Cn1c(=O)n(C)c(=O)n(CCCCCCS(=O)(=O)CC(=O)NN)c1=O`, the Growth_index was 27 in assay [2], 15 in assay [4], above 90 in assay [7] and 31 in assay [9]. For the same molecule, in [1], the MIC was found to be 0.1 µg/mL (≈ 0.265 µM).

In assay [1], `Cn1c(=O)n(C)c(=O)n(CCCS(=O)(=O)CC(N)=O)c1=O` displayed an MIC of 1 µg/mL (≈ 3.12 µM). The Growth_index amounted to 20 in assay [12]; 39 in assay [14]; 39 in [17]; 29 in assay [15]; 39 in [16].

Molecule `Cn1c(=O)n(C)c(=O)n(CCC[S+]([O-])CC(N)=O)c1=O` (stereo not drawn) yielded an MIC in assay [1] of 1 µg/mL (≈ 3.29 µM). The values for the Growth_index in [12], in [17] and in assay [15] were 7, above 90 and 41, respectively.

`Cn1c(=O)n(C)c(=O)n(CCS(=O)(=O)CC(N)=O)c1=O` gave an MIC in assay [1] of 25 µg/mL (≈ 81.6 µM). For the same molecule, the Growth_index in [18] is recorded as above 90.

Regarding `Cn1c(=O)n(C)c(=O)n(CCCCS(=O)(=O)CC(N)=O)c1=O`, the MIC in assay [1] turned out to be 1 µg/mL (≈ 2.99 µM). Moreover, the Growth_index is reported as 20 in [12]; 54 in assay [14]; 54 in [17]; 35 in [15]; 54 in assay [16].

In [1], `Cn1c(=O)n(C)c(=O)n(CCCCS(=O)(=O)CC(=O)NN)c1=O` showed an MIC of 1 µg/mL (≈ 2.86 µM). The Growth_index in [12] was 18; in assay [14], 73; in assay [17], 73; in [15], 34; in assay [16], above 90.

`Cn1c(=O)n(C)c(=O)n(CCCCCS(=O)(=O)CC(=O)NN)c1=O`: the Growth_index was found to be 12 in [3]; 14 in assay [12]; 33 in assay [6]; 50 in assay [14]; 50 in [17]; 50 in assay [15]. The results for the Growth_index in [8], in [16] and in assay [10] were above 90, 50 and 50, respectively. Further, inhibition of growth in assay [1] (MIC) required 0.5 µg/mL (≈ 1.38 µM).

On to `Cn1c(=O)n(C)c(=O)n(CC[S+]([O-])CC(=O)NN)c1=O` (stereo not drawn), for which the Growth_index in assay [3] is on record as 30; in assay [12], 10; in [6], above 90; in assay [14] it was 50; in [17], 40; in assay [15], 22. Besides, the Growth_index in assay [16] is 50. The molecule also had an MIC in assay [1] of 0.5 µg/mL (≈ 1.64 µM).

On to `Cn1c(=O)n(C)c(=O)n(CCCCCCS(=O)(=O)CC(N)=O)c1=O`, for which the lowest concentration to inhibit growth in assay [1] (MIC) was 1 µg/mL (≈ 2.76 µM). Further, the Growth_index in [12] is on record as 5; in assay [14], above 90; in [17] it was 53; in [15] it was 23.

Regarding `Cn1c(=O)n(C)c(=O)n(CCCCCS(=O)(=O)CC(N)=O)c1=O`, the lowest concentration to inhibit growth in assay [1] (MIC) was 1 µg/mL (≈ 2.87 µM). Also, the Growth_index in assay [12] was found to be 15; in [14], 23; in assay [17], 23; in assay [15] it was 20; in assay [16] it was 23.

In assay [1], `Cn1c(=O)n(C)c(=O)n(CC[S+]([O-])CC(N)=O)c1=O` (stereo not drawn) registered an MIC of 10 µg/mL (≈ 34.4 µM). For the same molecule, the Growth_index in assay [18] is recorded as above 90.

Regarding `Cn1c(=O)n(C)c(=O)n(CCCS(=O)(=O)CC(=O)NN)c1=O`, the Growth_index in [3] is 15; in assay [12] it was 5; in assay [6], 30; in [14], 55; in assay [17] it was 55; in assay [15], 18. The Growth_index in assay [16] is 55; in assay [10], above 90. Besides, the MIC in [1] is 1 µg/mL (≈ 2.98 µM).

In the case of `NNC(=O)c1ccncc1` [ISONIAZID], the MIC in [1] stood at 0.1 µg/mL (≈ 0.729 µM). The result in assay [11] and in assay [19] was Active.

In the case of `Cn1c(=O)n(C)c(=O)n(CC(O)CS(=O)(=O)CC(=O)NN)c1=O` (stereo not drawn), inhibition of growth in assay [1] (MIC) required 0.1 µg/mL (≈ 0.285 µM). The Growth_index came out at 1 in assay [12]; 35 in assay [14]; 30 in [17]; 25 in [15]; 35 in assay [16].

With `Cn1c(=O)n(C)c(=O)n(CCS(=O)(=O)CC(=O)NN)c1=O`, the Growth_index in assay [3] worked out at 25; in assay [12] it was 18; in assay [5] it was 53; in [6], 40; in assay [14] it was 33; in [17], 33. Moreover, the Growth_index in [15] amounted to 24; in assay [8], 40; in assay [16], 33; in [10] it was 40. Besides, in assay [1], the MIC came out at 0.5 µg/mL (≈ 1.56 µM).
